These results are taken from patent US20230357179A1, “RAF KINASE INHIBITORS AND METHODS OF USE THEREOF” (Deciphera Pharmaceuticals, LLC, priority 2021, published 2023).

T2 sequence (P10398 with tags, fused parts or gaps Y301D/Y302D): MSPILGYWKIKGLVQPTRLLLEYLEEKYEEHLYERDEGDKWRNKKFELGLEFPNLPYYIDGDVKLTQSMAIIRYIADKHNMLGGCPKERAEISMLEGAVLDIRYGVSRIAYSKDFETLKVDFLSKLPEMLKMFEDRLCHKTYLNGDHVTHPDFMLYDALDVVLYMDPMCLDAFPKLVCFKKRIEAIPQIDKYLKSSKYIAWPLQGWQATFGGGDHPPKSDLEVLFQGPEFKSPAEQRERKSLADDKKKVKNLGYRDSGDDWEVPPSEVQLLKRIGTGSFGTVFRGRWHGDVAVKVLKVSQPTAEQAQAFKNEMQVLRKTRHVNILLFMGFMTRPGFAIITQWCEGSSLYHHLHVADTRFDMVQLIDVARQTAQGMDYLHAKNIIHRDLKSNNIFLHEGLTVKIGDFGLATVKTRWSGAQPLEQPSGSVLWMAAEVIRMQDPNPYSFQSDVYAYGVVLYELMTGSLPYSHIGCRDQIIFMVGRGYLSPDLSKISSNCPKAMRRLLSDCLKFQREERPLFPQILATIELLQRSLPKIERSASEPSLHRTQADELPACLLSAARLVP

The target in the first experiment is T1, B-Raf (V600E) kinase (Homo sapiens, UniProt P15056, V600E).
T1 construct: B-Raf (V600E) residues 416-766 with a; GST (N); purchased SignalChem
T1 sequence (P15056 416-766 V600E): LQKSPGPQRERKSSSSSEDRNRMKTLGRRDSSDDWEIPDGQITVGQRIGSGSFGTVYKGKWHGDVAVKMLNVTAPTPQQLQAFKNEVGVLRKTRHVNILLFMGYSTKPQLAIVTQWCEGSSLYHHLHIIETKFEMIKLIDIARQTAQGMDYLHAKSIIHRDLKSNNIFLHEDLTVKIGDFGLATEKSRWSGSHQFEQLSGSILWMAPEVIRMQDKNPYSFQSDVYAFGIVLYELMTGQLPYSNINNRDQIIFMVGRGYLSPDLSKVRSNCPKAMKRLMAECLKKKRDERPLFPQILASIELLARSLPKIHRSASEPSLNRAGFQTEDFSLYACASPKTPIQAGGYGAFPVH
Description: Biochemical assay for B-Raf (V600E).1 (coupled pyruvate kinase/lactate dehydrogenase). Particulars: read-out: BRAF V600E.1 IC50. How it is done: Biochemical Assay for B-Raf (V600E).1
Activity of B-Raf (V600E) (SEQ. ID NO: 4) kinase was determined spectroscopically using a coupled pyruvate kinase/lactate dehydrogenase assay that continuously monitors the ATP hydrolysis-dependent oxidation of NADH (e.g., Schindler et al., Science, 2000, 289, 1938-1942). Assays were conducted in 384-well plates (100 μL final volume) using 0.03 nM B-Raf (SignalChem), 1.5 units pyruvate kinase, 2.1 units lactate dehydrogenase, 1 mM phosphoenol pyruvate, 0.28 mM NADH, 30.1 nM MEK (SignalChem), and 1 mM ATP in assay buffer (100 mM Tris, pH 7.5, 15 mM MgCl2, 0.5 mM DTT, 0.1% octyl-glucoside, 0.002% (w/v) BSA, and 0.002% Triton X-100). Inhibition of B-Raf (V600E) was measured by adding serial diluted test compound (final assay concentration of 1% DMSO). A decrease in absorption at 340 nm was monitored continuously for 6 h at 30° C. on a multi-mode microplate reader (BioTek). The reaction rate was calculated using the 3 to 4 h time frame. The reaction rate at each concentration of compound was converted to percent inhibition using controls (i.e., reaction with no test compound and reaction with a known inhibitor) and IC50 values were calculated by fitting a four-parameter sigmoidal curve to the data using Prism (GraphPad software).
Regarding `Cc1ncc(NC(=O)NCCC(C)(C)C)cc1-c1cc(N2CCOCC2)c(=O)n(C)c1` [Example 8], the IC50 (in general, the concentration that inhibits the measured activity by half) is no more than 100 nM.
On to `Cc1cc(F)c(NC(=O)NCCC2(C(F)(F)F)CC2)cc1-c1cc(C2CCOCC2)nc(N2CCN(C)CC2)c1` [Example 12], for which the IC50 was no more than 100 nM.
Same read-out and setting: the result for `Cc1ccc(NC(=O)NC23CC4CC(CC(C4)C2)C3)cc1-c1cc(OCCO)nc(N2CCOCC2)c1` [Example 14] reads no more than 100 nM.
Consider `Cc1ncc(NC(=O)NCCC(C)(C)C)cc1-c1ccnc(N2CCOCC2)c1` [Example 16], for which the IC50 was no more than 100 nM.
Still for that read-out and setting: the same measure for `Cc1ncc(NC(=O)NCCC(C)(C)C)cc1-c1cc(N2CCOCC2)c(=O)n(C)n1` [Example 17]: no more than 100 nM; for `COC1(CCNC(=O)Nc2cc(-c3cc(-c4cnn(C)c4)nc(N4CCOCC4)c3)c(C)cc2F)CC1` [Example 35]: no more than 100 nM; for `COC(C)(C)CCNC(=O)Nc1ccc(C)c(-c2cc(-c3cnn(C4CCNCC4)c3)nc(N3CCOCC3)c2)c1` [Example 46]: no more than 100 nM.
Still for that read-out and setting: the result for `CC(=O)Nc1cc(-c2cc(-c3cc(NC(=O)NCCCC(F)(F)F)c(F)cc3C)cc(C3CC3)n2)ccn1` [Example 58] reads no more than 100 nM; that for `COC(C)(C)CCNC(=O)Nc1cc(-c2cccc(-c3ccnc(N)c3)c2)c(C)cc1F` [Example 70], no more than 100 nM.
Still for that read-out and setting: the same measure for `Cc1ncc(NC(=O)N2CCOCC2)cc1-c1cccc(-c2cc(NC(=O)C3CC3)ncn2)c1` [Example 74]: 100 to 500 nM.

A further experiment concerns the target T2, A-Raf kinase (Homo sapiens, UniProt P10398, Y301D/Y302D).
T2 construct: purchased Sigma
Description: Biochemical assay for A-Raf.1 (coupled pyruvate kinase/lactate dehydrogenase). Particulars: read-out: ARAF.1 IC50. How it is done: Biochemical assay for A-Raf.1
(§1) Activity of A-Raf kinase (SEQ. ID NO. 1) was determined spectroscopically using a coupled pyruvate kinase/lactate dehydrogenase assay that continuously monitors the ATP hydrolysis-dependent oxidation of NADH (e.g., Schindler et al., Science, 2000, 289, 1938-1942). Assays were conducted in 384-well plates (100 μL final volume) using 5.55 nM A-Raf (Sigma), 1.5 units pyruvate kinase, 2.1 units lactate dehydrogenase, 1 mM phosphoenol pyruvate, 0.28 mM NADH, 30.1 nM MEK (SignalChem), and 1 mM ATP in assay buffer (100 mM Tris, pH 7.5, 15 mM MgCl2, 0.5 mM DTT, 0.1% octyl-glucoside, 0.002% (w/v) BSA, and 0.002% Triton X-100). Inhibition of A-Raf was measured by adding serial diluted test compound (final assay concentration of 1% DMSO). A decrease in absorption at 340 nm was monitored continuously for 6 h at 30° C. on a multi-mode microplate reader (BioTek). The reaction rate was calculated using the 4 to 5 h time frame. The reaction rate at each concentration of compound was converted to percent inhibition using controls (i.e., reaction with no test compound and reaction with a known inhibitor) and IC50 values were calculated by fitting a four-parameter sigmoidal curve to the data using Prism (GraphPad software).
`Cc1ncc(NC(=O)NCCC(C)(C)C)cc1-c1cc(N2CCOCC2)c(=O)n(C)c1` [Example 8]: the IC50 is greater than 1000 nM.
Consider `Cc1cc(F)c(NC(=O)NCCC2(C(F)(F)F)CC2)cc1-c1cc(C2CCOCC2)nc(N2CCN(C)CC2)c1` [Example 12], for which the IC50 was greater than 1000 nM.
Still for that read-out and setting: the result for `Cc1ccc(NC(=O)NC23CC4CC(CC(C4)C2)C3)cc1-c1cc(OCCO)nc(N2CCOCC2)c1` [Example 14] reads greater than 1000 nM; that for `Cc1ncc(NC(=O)NCCC(C)(C)C)cc1-c1ccnc(N2CCOCC2)c1` [Example 16], greater than 1000 nM.
Same read-out and setting: the result for `Cc1ncc(NC(=O)NCCC(C)(C)C)cc1-c1cc(N2CCOCC2)c(=O)n(C)n1` [Example 17] reads greater than 1000 nM.
The same measure, in the same setting: the result for `COC1(CCNC(=O)Nc2cc(-c3cc(-c4cnn(C)c4)nc(N4CCOCC4)c3)c(C)cc2F)CC1` [Example 35] reads greater than 1000 nM; that for `COC(C)(C)CCNC(=O)Nc1ccc(C)c(-c2cc(-c3cnn(C4CCNCC4)c3)nc(N3CCOCC3)c2)c1` [Example 46], greater than 1000 nM; that for `CC(=O)Nc1cc(-c2cc(-c3cc(NC(=O)NCCCC(F)(F)F)c(F)cc3C)cc(C3CC3)n2)ccn1` [Example 58], 500 to 1000 nM.
Turning to `COC(C)(C)CCNC(=O)Nc1cc(-c2cccc(-c3ccnc(N)c3)c2)c(C)cc1F` [Example 70], the IC50 was greater than 1000 nM.
Same read-out and setting: the result for `Cc1ncc(NC(=O)N2CCOCC2)cc1-c1cccc(-c2cc(NC(=O)C3CC3)ncn2)c1` [Example 74] reads greater than 1000 nM.

The target of the next experiment is T3, C-Raf kinase (Homo sapiens, UniProt P04049, Y340D/Y341D).
T3 construct: Y340D,; GST (N); purchased Sigma
T3 sequence (P04049 307-648 Y340D/Y341D): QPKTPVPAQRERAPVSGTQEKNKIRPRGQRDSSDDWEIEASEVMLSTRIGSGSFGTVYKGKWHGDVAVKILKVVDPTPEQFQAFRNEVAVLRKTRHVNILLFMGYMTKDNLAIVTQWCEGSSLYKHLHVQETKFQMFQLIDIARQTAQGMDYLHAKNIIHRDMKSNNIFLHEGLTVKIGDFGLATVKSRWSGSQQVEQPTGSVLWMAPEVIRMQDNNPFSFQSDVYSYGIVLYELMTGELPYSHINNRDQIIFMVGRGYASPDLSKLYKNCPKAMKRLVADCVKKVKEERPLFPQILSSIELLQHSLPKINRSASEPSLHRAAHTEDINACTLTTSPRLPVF
Description: Biochemical assay for C-Raf.1 (coupled pyruvate kinase/lactate dehydrogenase). As to conditions: read-out: CRAF.1 IC50. The procedure: Biochemical Assay for C-Raf.1
as §1, with “C-Raf” for “A-Raf”, “NO: 3)” for “NO. 1)”, “0.43” for “5.55”
Consider `Cc1ncc(NC(=O)NCCC(C)(C)C)cc1-c1cc(N2CCOCC2)c(=O)n(C)c1` [Example 8], for which the IC50 is 500 to 1000 nM.
Same read-out and setting: the result for `Cc1cc(F)c(NC(=O)NCCC2(C(F)(F)F)CC2)cc1-c1cc(C2CCOCC2)nc(N2CCN(C)CC2)c1` [Example 12] reads 100 to 500 nM; that for `Cc1ccc(NC(=O)NC23CC4CC(CC(C4)C2)C3)cc1-c1cc(OCCO)nc(N2CCOCC2)c1` [Example 14], 100 to 500 nM.
The same measure, in the same setting: the result for `Cc1ncc(NC(=O)NCCC(C)(C)C)cc1-c1ccnc(N2CCOCC2)c1` [Example 16] reads 100 to 500 nM; that for `Cc1ncc(NC(=O)NCCC(C)(C)C)cc1-c1cc(N2CCOCC2)c(=O)n(C)n1` [Example 17], greater than 1000 nM.
The same measure, in the same setting: the same measure for `COC1(CCNC(=O)Nc2cc(-c3cc(-c4cnn(C)c4)nc(N4CCOCC4)c3)c(C)cc2F)CC1` [Example 35]: 100 to 500 nM; for `COC(C)(C)CCNC(=O)Nc1ccc(C)c(-c2cc(-c3cnn(C4CCNCC4)c3)nc(N3CCOCC3)c2)c1` [Example 46]: 100 to 500 nM; for `CC(=O)Nc1cc(-c2cc(-c3cc(NC(=O)NCCCC(F)(F)F)c(F)cc3C)cc(C3CC3)n2)ccn1` [Example 58]: no more than 100 nM.
With `COC(C)(C)CCNC(=O)Nc1cc(-c2cccc(-c3ccnc(N)c3)c2)c(C)cc1F` [Example 70], the IC50 lay in the range of 100 to 500 nM.
On the same count and under the same terms, the result for `Cc1ncc(NC(=O)N2CCOCC2)cc1-c1cccc(-c2cc(NC(=O)C3CC3)ncn2)c1` [Example 74] reads greater than 1000 nM.

The target in the next experiment is T4, B-Raf kinase (Homo sapiens, UniProt P15056).
T4 construct: GST (N); purchased Sigma
T4 sequence (P15056 416-766): as the sequence (P15056 416-766 V600E) above, with E185V counted along it
Description: Biochemical assay for B-Raf.1 (coupled pyruvate kinase/lactate dehydrogenase). Particulars: read-out: BRAF.1 IC50. How it is done:
Biochemical Assay for B-Raf.1
Activity of B-Raf kinase (SEQ. ID NO: 2) was determined spectroscopically using a coupled pyruvate kinase/lactate dehydrogenase assay that continuously monitors the ATP hydrolysis-dependent oxidation of NADH (e.g., Schindler et al., Science, 2000, 289, 1938-1942). Assays were conducted in 384-well plates (100 μL final volume) using 0.13 nM B-Raf (Sigma), 1.5 units pyruvate kinase, 2.1 units lactate dehydrogenase, 1 mM phosphoenol pyruvate, 0.28 mM NADH, 30.1 nM MEK (SignalChem), and 1 mM ATP in assay buffer (100 mM Tris, pH 7.5, 15 mM MgCl2, 0.5 mM DTT, 0.1% octyl-glucoside, 0.002% (w/v) BSA, and 0.002% Triton X-100). Inhibition of B-Raf was measured by adding serial diluted test compound (final assay concentration of 1% DMSO). A decrease in absorption at 340 nm was monitored continuously for 6 h at 30° C. on a multi-mode microplate reader (BioTek). The reaction rate was calculated using the 4 to 5 h time frame. The reaction rate at each concentration of compound was converted to percent inhibition using controls (i.e., reaction with no test compound and reaction with a known inhibitor) and IC50 values were calculated by fitting a four-parameter sigmoidal curve to the data using Prism (GraphPad software).
`Cc1ncc(NC(=O)NCCC(C)(C)C)cc1-c1cc(N2CCOCC2)c(=O)n(C)c1` [Example 8]: the IC50 is greater than 1000 nM.
Still for that read-out and setting: the same measure for `Cc1cc(F)c(NC(=O)NCCC2(C(F)(F)F)CC2)cc1-c1cc(C2CCOCC2)nc(N2CCN(C)CC2)c1` [Example 12]: 500 to 1000 nM; for `Cc1ccc(NC(=O)NC23CC4CC(CC(C4)C2)C3)cc1-c1cc(OCCO)nc(N2CCOCC2)c1` [Example 14]: greater than 1000 nM.
For `Cc1ncc(NC(=O)NCCC(C)(C)C)cc1-c1ccnc(N2CCOCC2)c1` [Example 16], the IC50 is 500 to 1000 nM.
Still for that read-out and setting: the result for `Cc1ncc(NC(=O)NCCC(C)(C)C)cc1-c1cc(N2CCOCC2)c(=O)n(C)n1` [Example 17] reads greater than 1000 nM.
Still for that read-out and setting: the same measure for `COC1(CCNC(=O)Nc2cc(-c3cc(-c4cnn(C)c4)nc(N4CCOCC4)c3)c(C)cc2F)CC1` [Example 35]: 100 to 500 nM; for `COC(C)(C)CCNC(=O)Nc1ccc(C)c(-c2cc(-c3cnn(C4CCNCC4)c3)nc(N3CCOCC3)c2)c1` [Example 46]: 100 to 500 nM; for `CC(=O)Nc1cc(-c2cc(-c3cc(NC(=O)NCCCC(F)(F)F)c(F)cc3C)cc(C3CC3)n2)ccn1` [Example 58]: no more than 100 nM.
The same measure, in the same setting: the result for `COC(C)(C)CCNC(=O)Nc1cc(-c2cccc(-c3ccnc(N)c3)c2)c(C)cc1F` [Example 70] reads 100 to 500 nM; that for `Cc1ncc(NC(=O)N2CCOCC2)cc1-c1cccc(-c2cc(NC(=O)C3CC3)ncn2)c1` [Example 74], greater than 1000 nM.
